Source: paper PMC10687071 (The Journal of Biological Chemistry, 2023)
Changes are numbered by the printed parent chain.

Legend:
[1] = molecular target: T1, Y71E mutant EAG1 channels (Mus musculus, UniProt Q60603, Y71E); assay: TEVC recording, imipramine inhibition, Y71E mutant; type: cell-based; settings: Y71E mutant EAG1 channel, +50 mV
T1 construct: expressed in transfected cells; host or cells: Xenopus laevis oocytes injected with cRNA
T1 sequence (Q60603 1-989 Y71E): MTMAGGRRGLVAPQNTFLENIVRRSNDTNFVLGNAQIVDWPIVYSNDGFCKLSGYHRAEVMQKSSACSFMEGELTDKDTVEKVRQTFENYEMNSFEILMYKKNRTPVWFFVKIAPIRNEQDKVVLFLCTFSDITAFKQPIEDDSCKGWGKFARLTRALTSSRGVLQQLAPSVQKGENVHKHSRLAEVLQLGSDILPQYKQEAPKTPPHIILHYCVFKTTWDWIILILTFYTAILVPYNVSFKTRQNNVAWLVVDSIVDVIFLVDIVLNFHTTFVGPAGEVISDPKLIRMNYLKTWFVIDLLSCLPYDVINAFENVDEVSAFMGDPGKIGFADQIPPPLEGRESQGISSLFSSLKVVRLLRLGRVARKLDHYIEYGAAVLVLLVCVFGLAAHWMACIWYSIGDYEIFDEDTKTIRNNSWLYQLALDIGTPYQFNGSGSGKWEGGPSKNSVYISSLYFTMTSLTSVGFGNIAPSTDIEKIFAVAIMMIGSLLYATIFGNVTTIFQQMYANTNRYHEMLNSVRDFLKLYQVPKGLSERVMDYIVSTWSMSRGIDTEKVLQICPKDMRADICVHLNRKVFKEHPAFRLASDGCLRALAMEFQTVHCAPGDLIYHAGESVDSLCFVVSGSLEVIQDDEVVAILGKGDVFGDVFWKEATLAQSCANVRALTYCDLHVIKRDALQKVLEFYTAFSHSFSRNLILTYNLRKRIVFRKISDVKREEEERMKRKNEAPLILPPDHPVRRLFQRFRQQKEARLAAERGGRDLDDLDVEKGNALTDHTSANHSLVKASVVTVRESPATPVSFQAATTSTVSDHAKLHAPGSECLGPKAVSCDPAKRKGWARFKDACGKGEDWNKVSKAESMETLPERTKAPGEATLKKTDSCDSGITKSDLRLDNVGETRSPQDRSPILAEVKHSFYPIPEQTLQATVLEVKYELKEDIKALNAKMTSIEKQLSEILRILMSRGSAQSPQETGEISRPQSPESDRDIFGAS
Description: (§1) The cDNA encoding wild-type (WT) mouse EAG1 channels in pGH19 vector was kindly provided by G. Robertson (University of Wisconsin-Madison, Madison, WI). The mutant ΔPAS EAG1 channel in pGH19 with the deletion of the PAS domain residues 2 to 130 was generated by Bio Basic Inc and verified by DNA sequencing (Genewiz). Mutant EAG1 channels with single amino acid substitutions were generated by Genewiz and verified by DNA sequencing. cRNA was transcribed using the T7 mMessage mMachine kit (Thermo Fisher Scientific). Defolliculated Xenopus laevis oocytes were purchased from Ecocyte Bioscience or Xenopus1 and injected with the cRNA using a Nanoinject II oocyte injector (Drummond).
(§2) For EAG1 current recordings, oocytes were placed into a handmade chamber containing a bath solution for the current recording. The currents were recorded using a TEVC technique with OC-725C amplifier (Warner Instruments) and pClamp11 software (Molecular Devices). The signals were digitized using Digidata 1550 (Molecular Devices). Patch pipettes were pulled from borosilicate glass and had resistances of 0.7 to 1.5 MΩ. The recording (bath) solution contained 96 mM NaCl, 4 mM KCl, 0.1 mM CaCl2, 1.8 mM MgCl2, and 5 mM HEPES, pH 7.5. The pipette solution contained 3 M KCl. […]

[2] = molecular target: T2, Y71R mutant EAG1 channels (Mus musculus, UniProt Q60603, Y71R); assay: TEVC recording, imipramine inhibition, Y71R mutant; type: cell-based; settings: Y71R mutant EAG1 channel, +50 mV
T2 construct: expressed in transfected cells; host or cells: Xenopus laevis oocytes injected with cRNA
T2 sequence (Q60603 1-989 Y71R): T1 sequence (Q60603 1-989 Y71E) with E71R
Description: as §1, §2

IC50 [1]: 28.5 ± 1.4 µM
IC50 [2]: 43.4 ± 7.5 µM
SMILES: CN(C)CCCN1c2ccccc2CCc2ccccc21 [imipramine]
